Activity calls are given as the source filed them. The rule behind the calls is not given here.
Tests used:
PC-3 [1] = experiment: Induction of apoptosis in human PC-3 cells assessed as viable cells at 50 nM measured after 24 hrs by annexin V-FITC and PI staining based flow cytometry analysis (reference value: 90.6%); assay type: functional; conditions: read-out: Activity
PC-3 [2] = experiment: Induction of apoptosis in human PC-3 cells assessed as late apoptotic cells at 200 nM measured after 24 hrs by annexin V-FITC and PI staining based flow cytometry analysis (reference value: 2.37%); assay type: functional
PC-3 [3] = experiment: Induction of cell cycle arrest in human PC-3 cells assessed as reduction in cdc25c phosphorylation at ser216 residue at 50 to 200 nM incubated for 24 hrs by DAPI staining based analysis; assay type: functional; conditions: dose 50-200 nM
PC-3 [4] = experiment: Induction of apoptosis in human PC-3 cells assessed as necrotic cells at 100 nM measured after 24 hrs by annexin V-FITC and PI staining based flow cytometry analysis (reference value: 6.01%); assay type: functional
PC-3 [5] = experiment: Induction of cell cycle arrest in human PC-3 cells assessed as increase in histone H3at Ser10 residues at 50 to 200 nM incubated for 24 hrs by DAPI staining based analysis; assay type: functional; conditions: dose 50-200 nM
PC-3 [6] = experiment: Induction of apoptosis in human PC-3 cells assessed as late apoptotic cells at 100 nM measured after 24 hrs by annexin V-FITC and PI staining based flow cytometry analysis (reference value: 2.37%); assay type: functional
DU-145 = experiment: Antiproliferative activity against human DU-145 cells assessed as inhibition of cell growth after 72 hrs by MTT assay; assay type: functional, cell-based; conditions: DU-145, 72 h
[7] = Toxicity in ICR mouse assessed as effect on BUN level at 10 mg/kg, ip measured for 14 days; assay type: organism-based; conditions: in vivo, 336 h, time 14 day
PC-3 [8] = experiment: Induction of immunogenic cell death in human PC-3 cells assessed as increase in CRT translocation to cell surface at 200 nM measured after 12 hrs in presence of TUDCA by DAPI staining based analysis; assay type: functional
[9] = Toxicity in ICR mouse assessed as effect on heart at 10 mg/kg, ip measured for 14 days by H and E staining based analysis; assay type: organism-based; conditions: in vivo, 336 h, time 14 day
PC-3 [10] = experiment: Induction of apoptosis in human PC-3 cells assessed as necrotic cells at 50 nM measured after 24 hrs by annexin V-FITC and PI staining based flow cytometry analysis (reference value: 6.01%); assay type: functional
[11] = Toxicity in ICR mouse assessed as effect on WBC count at 10 mg/kg, ip measured for 14 days; assay type: organism-based; conditions: in vivo, 336 h, time 14 day
PC-3 [12] = experiment: Induction of cell cycle arrest in human PC-3 cells assessed as accumulation of cells at G1 phase at 200 nM incubated for 24 hrs by flow cytometry analysis (reference value: 49.4%); assay type: functional
PC-3 [13] = experiment: Induction of cell cycle arrest in human PC-3 cells assessed as accumulation of cells at G2/M phase at 50 nM incubated for 24 hrs by flow cytometry analysis (reference value: 19.5%); assay type: functional
[14] = Binding affinity to porcine brain tubulin polymerization assessed as dissociation constant measured after 20 mins by fluorescence based analysis; assay type: tissue-based, Sus scrofa
PC-3 [15] = experiment: Induction of apoptosis in human PC-3 cells assessed as viable cells at 200 nM measured after 24 hrs by annexin V-FITC and PI staining based flow cytometry analysis (reference value: 90.6%); assay type: functional; conditions: read-out: Activity
PC-3 [16] = experiment: Induction of cell cycle arrest in human PC-3 cells assessed as accumulation of cells at S phase at 200 nM incubated for 24 hrs by flow cytometry analysis (reference value: 31.3%); assay type: functional
PC-3 [17] = experiment: Induction of immunogenic cell death in human PC-3 cells assessed as increase in CRT translocation to cell surface at 200 nM measured after 12 hrs in presence of NAC by DAPI staining based analysis; assay type: functional
PC-3 [18] = experiment: Induction of apoptosis in human PC-3 cells measured after 24 hrs by annexin V-FITC and PI staining based flow cytometry analysis; assay type: functional, cell-based; conditions: dose 50-200 nM
PC-3 [19] = experiment: Induction of cell cycle arrest in human PC-3 cells assessed as accumulation of cells at G2/M phase at 100 nM incubated for 24 hrs by flow cytometry analysis (reference value: 19.5%); assay type: functional
[20] = Antitumor activity against mouse RM1 cells xenografted in immunocompetent […] mouse model assessed as tumor growth inhibition at 5 mg/kg, iv measured every two days for 14 days relative to control; assay type: functional; conditions: RM1, 336 h, time 14 day, read-out: TGI
HUVEC = experiment: Disruption of vasculature in HUVEC cells assessed as interruption of tubelike network formation incubated for 6 hrs by inverted fluorescence microscope analysis; assay type: functional, cell-based; conditions: Homo sapiens, dose 50-200 nM
RM1 = experiment: Antitumor immunity against mouse RM1 cells homografted in C57BL/6 mouse model assessed as increase in tumor infiltrating helper T lymphocytes in spleen at 5 to 10 mg/kg, iv administered every two days for 14 days by flow cytometry analysis; assay type: functional, organism-based; conditions: dose 5-10 mg/kg, time 14.0 day
Tubulin (Homo sapiens) [21] = molecular target: T1, Tubulin (Homo sapiens) (UniProt P68371+Q9H4B7+P0DPH7+P68366+Q13509+Q71U36+P04350+Q3ZCM7+P07437+P68363+Q9BQE3+Q6PEY2+Q13885+Q9BVA1+Q9BUF5); experiment: Disruption of microtubule network in human PC-3 cells at 50 to 200 nM incubated for 6 to 24 hrs by immunofluorescence staining based confocal microscopy analysis relative to control; assay type: cell-based; conditions: dose 50-200 nM, time 6-24 hrs
PC-3 [22] = experiment: Inhibition of V-ATPase activity in lysosomes of human PC-3 cells assessed as decrease in fluorescence at 50 to 200 nM incubated for 24 hrs by Lyso tracker red staining based inverted fluorescent microscopic analysis; assay type: subcellular; conditions: Lysosome, dose 50-200 nM
Tubulin (Homo sapiens) [23] = molecular target: T1, Tubulin (Homo sapiens); experiment: Inhibition of tubulin polymerization (unknown origin) assessed as reduction in intracellular AC-alpha-tubulin at 50 to 200 nM measured for 6 hrs by […] Western blot analysis; assay type: cell-based; conditions: PC-3, dose 50-200 nM
PC-3 [24] = experiment: Induction of immunogenic cell death in human PC-3 cells assessed as effect on CRT expression at 50 to 200 nM; assay type: functional, cell-based; conditions: dose 50-200 nM
PC-3 [25] = experiment: Inhibition of V-ATPase activity in lysosomes of human PC-3 cells assessed as decrease in fluorescence at 50 to 200 nM incubated for 24 hrs by acridine orange staining based inverted fluorescent microscopic analysis; assay type: subcellular; conditions: Lysosome, dose 50-200 nM
PC-3 [26] = experiment: Induction of cell cycle arrest in human PC-3 cells assessed as accumulation of cells at G1 phase at 100 nM incubated for 24 hrs by flow cytometry analysis (reference value: 49.4%); assay type: functional
PC-3 [27] = experiment: Induction of cell cycle arrest in human PC-3 cells assessed as reduction in CDC2 phosphorylation at Thr161 residue at 50 to 200 nM incubated for 24 hrs by DAPI staining based analysis; assay type: functional; conditions: dose 50-200 nM
PC-3 [28] = experiment: Induction of immunogenic cell death in human PC-3 cells assessed as increase in CRT translocation to cell surface at 50 to 200 nM measured after 12 hrs by DAPI staining based analysis; assay type: functional; conditions: dose 50-200 nM
PC-3 [29] = experiment: Induction of apoptosis in human PC-3 cells assessed as increase in bax level at 50 to 200 nM incubated for 24 hrs by Western blot analysis; assay type: functional, cell-based; conditions: dose 50-200 nM
[30] = Toxicity in ICR mouse assessed as effect on ALT level at 10 mg/kg, ip measured for 14 days; assay type: organism-based; conditions: in vivo, 336 h, time 14 day

With `COc1cc(-c2nc(C(N)=O)cc3cc4c(cc23)OCCO4)cc(Br)c1OC` the viability at 0.05 µM (PC-3 [1]) was 87.6%, the Activity (PC-3 [2]) was 19.4% and the Activity (PC-3 [3]) was “Active”. The Activity (PC-3 [4]) was 6.41%, the Activity (PC-3 [5]) was “Active” and the Activity (PC-3 [6]) was 10.3%. For the same molecule, the IC50 (DU-145) was 0.11 µM, the Activity [7] was “Non-Toxic” and the Activity (PC-3 [8]) was “inactive”. The Activity [9] was “Non-Toxic”, the Activity (PC-3 [10]) was 6.91% and the Activity [11] was “Non-Toxic”. It also gave an Activity (PC-3 [12]) of 17.9%, an Activity (PC-3 [13]) of 30.9% and a Kd [14] of 6.56 µM. The viability at 0.2 µM (PC-3 [15]) was 50.9%, the Activity (PC-3 [16]) was 17.1% and the Activity (PC-3 [17]) was “inactive”. For the same molecule, the Activity (PC-3 [18]) was “Dose-Dependent Effect”, the Activity (PC-3 [19]) was 42.8% and the inhibition in vivo at 5 mg/kg [20] was 54.6%. The Activity (HUVEC) was “Active”, the Activity (RM1) was “Active” and the Activity (Tubulin (Homo sapiens) [21]) was “Active”. The inhibition (PC-3 [22]) was “Active”, the inhibition (Tubulin (Homo sapiens) [23]) was “Active” and the Activity (PC-3 [24]) was “Active”. For the same molecule, the inhibition (PC-3 [25]) was “Active”, the Activity (PC-3 [26]) was 34.1% and the Activity (PC-3 [27]) was “Active”. The Activity (PC-3 [28]) was “Active”, the Activity (PC-3 [29]) was “Active” and the Activity [30] was “Non-Toxic”.

Reference: ChEMBL document CHEMBL5528053, “Discovery of Novel Isoquinoline Analogues as Dual Tubulin Polymerization/V-ATPase Inhibitors with Immunogenic Cell Death Induction” (J Med Chem, 2024)
